Laboratory results as given in US20210047278A1, “E3 UBIQUITIN LIGASE AGONISTS, PHARMACEUTICAL COMPOSITIONS INCLUDING THE E3 UBIQUITIN LIGASE AGONISTS, RELATED METHODS OF USE” (FRED HUTCHINSON CANCER RESEARCH CENTER, priority 2018, published 2021).
Read-outs that look alike come from different tables or passages of the source.

Assays:
Assay type in all cases: binding
FBW7^ARG+pCycE = target: T1, FBW7^ARG+pCycE (Homo sapiens, UniProt Q969H0, R505L); experiment: FBW7^ARG-cyclin E agonist ALPHAscreen (primary PRUN, confirmation CRUN1, dose-response DRUN); settings: for EC50 / Emax: DRUN dose-response; for Emax: relative to WT-FBW7+pCycE, read-out: FBW7 ACT Averaged Max % Response
T1 construct: GST (TEV site and flexible linker) (N, cleaved yes); made in house; host or cells: SF9 insect cells (baculovirus)
Text: FBW7^ARG refers to a class of loss-of-function mutations of the of FBW7 ubiquitin ligase that target a key phosphate-binding arginine residue in the FBW7 substrate-binding domain. These mutations are commonly found in human cancers and promote tumorigenesis by impairing the interactions between FBW7 and its substrates, such as cyclin E and Myc. Described herein is a high throughput screen (HTS) to identify agonists, such as small molecules, that augment FBW7^ARG-substrate binding. In an embodiment, the HTS is based on the Amplified Luminescent Proximity Homogenous Assay (ALPHAscreen) because it detects protein-protein interactions with a large dynamic range. ALPHAscreen is a bead-based proximity assay wherein donor beads contain a photosensitizer, phthalocyanine, and acceptor beads contain thioxene, anthracene and rubrenein in sufficient quantities to generate a chemiluminescence/fluorescence reaction (FIG. 4A). Upon excitation with excitation illumination, such as light having a wavelength of 680 nm, of the donor beads, phthalocyanine converts ambient oxygen to singlet oxygen, which can diffuse approximately 200 nm within its 4-microsecond half-life. If an acceptor bead is in close proximity to an excited donor bead, singlet oxygen transfers its energy to the acceptor, resulting in emitted light at a broad bandwidth of −520-620 nm. The HTS-compatible FBW7/cyclin E ALPHAscreen assay described herein uses streptavidin coupled donor beads and Ni-chelate acceptor beads. In this assay, biotinylated cyclin E phosphopeptide and the His-tagged FBW7 mutant protein have high affinity for the donor and acceptor beads, respectively (FIG. 4B). A small molecule that is able to bridge the binding sites of the peptide and the mutant protein (or induce a conformational change that increases affinity of the protein for the peptide) will bring the donor and acceptor beads in close proximity to each other, resulting in an ALPHA signal. As designed, this assay format is a very sensitive, non-radioactive, homogenous “mix-and-read” format that is HT compatible in 384 and 1536 well formats.
In the 384-well screening assay, 10 uL of acceptor beads with 25 nM of the FBW7^ARG (RLFBW7) are dispensed to test wells; acceptor beads with 25 nM of the wt-FBW7 protein (WTFBW7) are dispensed to control wells. Test compounds are then added by pintool transfer and the mixture is incubated for 30 minutes. An additional 10 uL of donor beads with 25 nM cyclin E phosphopeptide is then added to all wells and the plate is incubated for 4 hours before the ALPHA signal is measured.
In preparation for large-scale screening, the assay was miniaturized to a 1536-well format. The miniaturized screen performed outstandingly in all respects. The screen was enhanced with respect to several parameters and assayed its performance using mutant FBW7 and wt-FBW7, as well as non-specific assay agonists. […] For example, the following Z′-scores/FBW7 concentrations were obtained: 6.25 nM/Z′=0.62, 12.5 nm/Z′=0.85, 25.0 nM/Z′=0.84.
1. Add 2.5 uL of RLFBW7/cycE˜P/Ni beads: Final [25 nM/25 nM/10 ug/ml].
2. Add 2.5 uL of WTFBW7/cycE˜P/Ni beads: Final [25 nM/25 nM/10 ug/ml].
4. Add 2.5 uL of SA beads to all wells Final [10 ug/ml],
5. Add 30 nL of compounds,
6. Read ALPHAscreen on Envision
The large-scale FBW7 agonist ALPHAscreen was completed using FBW7^ARG and a phosphorylated cyclin E (pCycE) degron peptide. Wt-FBW7+pCycE-peptide was the “high control”, and Wt-FBW7+unphosph. CycE peptide was the “low control”. The screen was performed on the 645,000-compound Scripps Diversity Library using 1536-well format and drug concentrations of 26.1 μM. An algorithm aided hit identification based on the average percent activation for all compounds and their standard deviation.
A confirmation assay of all 853 compounds in triplicate using a single concentration (26.1 μM). […]

FBW7^ARG (RLFBW7) alone = target: T2, FBW7^ARG (RLFBW7) alone (Homo sapiens, UniProt Q969H0, R505L); experiment: Counterscreen 1 ALPHAscreen with FBW7^ARG alone (CSRUN1/DCSRUN1); settings: dose-response counterscreen; for Emax: read-out: RLFBW7 ACT DCSRUN1 Averaged Max % Response
T2 construct: GST (TEV site and flexible linker) (N, cleaved yes); made in house; host or cells: SF9 insect cells (baculovirus)
Method: (§1) Studies in 384-well format were performed using the ENVISION system. Reagent concentrations (see FIG. 6A), order of addition, pH (see FIG. 6B), and reducing agent were altered with the goal of enhancing the dynamic range between wt-FBW7 (the positive control) and FBW7^ARG (FIG. 6 and not shown). Wt-FBW7 produced a signal 100× greater with phosphorylated cyclin E degron peptide compared with unphosphorylated, which represents the assay's maximum range (FIG. 6C). […] This assay thus detects the residual affinity of the FBW7^ARG-substrate interaction, which, as predicted, is stronger than wt-FBW7 protein with unphosphorylated cyclin E peptide. Concurrent with this primary assay, counter ALPHAscreens were developed which omitted either FBW7 or peptide (to eliminate hits that are general ALPHAscreen agonists), or used an irrelevant phosphopeptide (to eliminate compounds that simply augment binding to phosphopeptides). […]
(§2) The 77 hits were subjected to a dose-response assay in which each compound was tested in triplicate in a 10 point 3-fold dilutional series, to a maximum concentration of approximately 87 μM. Three screens were performed, using FBW7^ARG+pCycE (DRUN), FBW7^ARG (DCSRUN1), or pCycE alone (DCSRUN2). See TABLES 2, 3, and 4, respectively, and FIG. 10A. All of the assays performed extremely well, and threshold of 10% activation (relative to WT-FBW7+pCycE) was set as positive. […] Many hits fell into shared structure cluster ID groups, reinforcing the idea that they function as specific agonists (see below and TABLE 5).

pCycE alone = experiment: Counterscreen 2 ALPHAscreen with cyclin E phosphopeptide alone (CSRUN2/DCSRUN2); settings: for CyCEP ACT DCSRUN2 Averaged Max % Response: activation relative to WT-FBW7+pCycE, averaged maximum; for EC50: dose-response, triplicate, 10 point 3-fold dilutional series, read-out: CyCEP ACT DCSRUN2 Final EC50
Method: as §1, §2

[1] = raw curve fit, read-out: FBW7 ACT EC50 Curve Fit Raw, Molar
[2] = triplicate, 10 point 3-fold dilution, max approx. 87 μM, read-out: FBW7 ACT Final EC50, Molar
[3] = confirmation assay, triplicate, single concentration 26.1 μM, read-out: FBW7 ACT CRUN1 Avg % Response and Stdev
[4] = primary screen, 1536-well, 26.1 μM, FBW7^ARG + pCycE degron peptide, high control wt-FBW7+pCycE, read-out: FBW7 ACT PRUN % Response
[5] = raw curve fit, read-out: RLFBW7 ACT DCSRUN1 EC50 Curve Fit Raw
[6] = read-out: RLFBW7 ACT DCSRUN1 Final EC50

T2 sequence (Q969H0 64-707 R505L): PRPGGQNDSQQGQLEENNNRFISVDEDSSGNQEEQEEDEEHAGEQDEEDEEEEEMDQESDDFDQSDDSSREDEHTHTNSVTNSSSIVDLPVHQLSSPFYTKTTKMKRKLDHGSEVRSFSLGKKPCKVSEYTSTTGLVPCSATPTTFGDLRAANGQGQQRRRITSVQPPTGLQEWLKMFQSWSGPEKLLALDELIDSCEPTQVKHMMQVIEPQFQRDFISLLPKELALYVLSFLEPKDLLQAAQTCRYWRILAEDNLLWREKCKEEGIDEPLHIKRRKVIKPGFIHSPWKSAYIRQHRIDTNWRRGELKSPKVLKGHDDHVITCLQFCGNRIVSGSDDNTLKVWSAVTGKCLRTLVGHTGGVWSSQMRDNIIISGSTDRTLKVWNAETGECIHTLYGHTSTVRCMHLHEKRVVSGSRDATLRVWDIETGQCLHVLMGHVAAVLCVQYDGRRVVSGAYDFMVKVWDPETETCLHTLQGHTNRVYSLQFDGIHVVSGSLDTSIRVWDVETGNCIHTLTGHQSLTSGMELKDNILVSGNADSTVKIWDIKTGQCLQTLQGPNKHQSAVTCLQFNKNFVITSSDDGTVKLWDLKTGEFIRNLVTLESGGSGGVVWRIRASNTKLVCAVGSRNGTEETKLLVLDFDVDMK
T2 sequence (P63208 2-163 partner): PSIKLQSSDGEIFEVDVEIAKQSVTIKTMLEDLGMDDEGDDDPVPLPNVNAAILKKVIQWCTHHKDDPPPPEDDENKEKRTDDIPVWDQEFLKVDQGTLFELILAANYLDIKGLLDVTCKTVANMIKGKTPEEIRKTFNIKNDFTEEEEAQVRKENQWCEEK
T1 sequence (Q969H0 64-707 R505L): as the sequence (Q969H0 64-707 R505L) above
T1 sequence (P63208 2-163 partner): as the sequence (P63208 2-163 partner) above

| SMILES | EC50 (FBW7^ARG+pCycE; [1]) [µM] | Emax (FBW7^ARG+pCycE) [%] | EC50 (FBW7^ARG+pCycE; [2]) [µM] | activation at 26.1 µM (FBW7^ARG+pCycE; [3]) [%] | activation at 26.1 µM (FBW7^ARG+pCycE; [4]) [%] | EC50 (FBW7^ARG (RLFBW7) alone; [5]) [µM] | Emax (FBW7^ARG (RLFBW7) alone) [%] | EC50 (FBW7^ARG (RLFBW7) alone; [6]) [µM] | CyCEP ACT DCSRUN2 Averaged Max % Response (pCycE alone) [%] | EC50 (pCycE alone) [µM] |
| --- | --- | --- | --- | --- | --- | --- | --- | --- | --- | --- |
| COc1cc(-c2ccnc(N)n2)ccc1NC(=O)[C@H]1COc2ccccc2O1.O=C(O)C(F)(F)F [SR-00000003239-1] | 18.6 | 19.3 | > 65.3 | 2.52 ± 0.29 | 2.52 | 12.8 | 0.69 | > 65.3 | 0.15 | > 65.3 |
| NC(c1nc2cc(-c3ccncc3)cnc2[nH]1)c1ccc(F)cc1F.O=C(O)C(F)(F)F (stereo not drawn) [SR-00000003416-1] | 8.8 | 16.4 | > 65.3 | 3.91 ± 0.47 | 3.51 | 4 | 0.2 | > 65.3 | 0.29 | > 65.3 |
| O=C(NCc1ccc(C(=O)NCCc2ccccn2)cc1)Nc1ccc(-c2cn[nH]c2)cc1 [SR-00000005517-1] | 31.5 | 20 | > 65.3 | 4.71 ± 0.2 | 1.94 | 28.3 | 100 | 28.2 | – | – |
| O=C([C@H]1CC[C@H](Nc2nccc(-c3ccc4nc(C5CC5)nc(O)c4c3)n2)CC1)N1CCCC1 [SR-00000008677-1] | – | 35.9 | > 65.3 | 4.42 ± 0.03 | 2.63 | 0.0572 | 0.06 | > 65.3 | – | – |
| Cc1cccc(CC(=O)Nc2cnn(-c3cccc(C(=O)N4CCNC(=O)CC4)c3)c2)c1 [SR-01000188911-1] | 7.5 | 23.6 | > 65.3 | 2.88 ± 0.43 | 4.34 | 1.7 | -0.141 | > 65.3 | – | – |
| COc1ccccc1N1C(=O)c2ccc(C(=O)Nc3cc([N+](=O)[O-])ccc3O)cc2C1=O [SR-01000236956-1] | 22.1 | 10.6 | > 65.3 | 3.72 ± 0.2 | 2.14 | 21.2 | 2.25 | > 65.3 | – | – |
| Cc1ccnc(N2CCC(C(=O)Nc3ccccc3Br)CC2)n1 [SR-01000330228-1] | 0.0482 | 6.46 | > 65.3 | 3.43 ± 0.23 | 2.08 | – | 0.25 | > 65.3 | – | – |
| O=C(Nc1ccc2oc(-c3ccc4ccccc4c3)nc2c1)c1cccc(Cl)c1Cl [SR-01000415504-1] | 0.0458 | 7.3 | > 56.6 | 10.7 ± 0.62 | 1.88 | 0.136 | -0.031 | > 56.6 | – | – |
| CCCOC(=O)C1=C(C)N(CC)C(=O)NC1c1ccccc1[N+](=O)[O-] (stereo not drawn) [SR-01000417871-1] | 8.6 | 17.3 | > 67.2 | 18.3 ± 0.97 | 2.55 | 2.8 | 0.3 | > 67.2 | – | – |
| CCc1ccc(N2CC(C(=O)NCC(C)(C)CNC(=O)C3CC(=O)N(c4ccc(CC)cc4)C3)CC2=O)cc1 (stereo not drawn) [SR-01000537224-1] | 7.1 | 16.5 | > 40.4 | 7.38 ± 0.72 | 4.51 | 0.0053 | 2.4 | > 40.4 | – | – |
| COc1cc2c(cc1OC)C(COc1ccc([N+](=O)[O-])cc1)N(C(=O)c1ccc3c(c1)OCO3)CC2 (stereo not drawn) [SR-01000568734-1] | 9.2 | 16 | > 49.8 | 3.13 ± 0.23 | 2.1 | – | 1.58 | > 49.8 | – | – |
| COc1ccc(NC(=O)c2cc(S(=O)(=O)N3CCN(c4ccccn4)CC3)ccc2F)cc1 [SR-01000579121-1] | 0.0032 | 11.6 | > 54.6 | 2.82 ± 0.29 | 1.87 | – | 1.99 | > 54.6 | – | – |
